According to US20020137929A1, “1 - (3-heterocyclylphenyl) isothiourea, -isourea, -guanidine and -amidine herbicidal agents” (Intellectual Property Department, BASF Aktiengesellschaft, priority 1998, published 2002):

How the values were obtained:
AMBEL (Ragweed, Common) [1] = assay: Postemergence herbicidal evaluation; type: in vivo, Ambrosia artemisifolia; details: postemergence
Summary of the method: (§1)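 Rate range approx. 0.0156–0.500 kg/ha. Foliar application at 40 psi to ~2-week seedlings; surfactant 0.5% TWEEN 20 in 50/50 acetone/water. Evaluation 4–5 wk post-treatment by 0–9 visual injury score, means of replicate tests.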

CASOB (Sicklepod) [2] = assay: Postemergence herbicidal evaluation; type: in vivo, Cassia obtusifolia; details: postemergence
Summary of the method: as §1

[3] = tested on: CHEAL (Lambsquarters, Common); assay: Postemergence herbicidal evaluation; type: in vivo, Chenopodium album; details: postemergence
Summary of the method: as §1

[4] = tested on: IPOHE (Morningglory, Ivyleaf); assay: Postemergence herbicidal evaluation; type: in vivo, Ipomoea hederacea; details: postemergence
Summary of the method: as §1

ECHCG (Barnyardgrass) = assay: Postemergence herbicidal evaluation; type: in vivo, Echinochloa crus-galli; details: postemergence
Summary of the method: as §1

[5] = tested on: GLXMAW (Soybean, Williams); assay: Postemergence herbicidal evaluation; type: in vivo, Glycine max, (L.) Merr. cv Williams; details: postemergence
Summary of the method: as §1

[6] = tested on: TRZAWR (Wheat, Winter, cv Riband); assay: Postemergence herbicidal evaluation; type: in vivo, Triticum aestivum; details: postemergence
Summary of the method: as §1

ABUTH (Velvetleaf) = assay: Preemergence herbicidal evaluation; type: in vivo, Abutilon theophrasti; details: preemergence, rated 4-5 weeks after treatment, 0-9 scale
Summary of the method: (§2)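 Steps: mix seeds into potting soil; plant atop ~1 inch soil; spray compound in aqueous acetone (~0.0156-0.500 kg/ha equivalent); maintain in greenhouse with watering; rate visually 0-9 versus control at 4-5 weeks.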

AMBEL (Ragweed, Common) [7] = assay: Preemergence herbicidal evaluation; type: in vivo, Ambrosia artemisifolia; details: preemergence, rated 4-5 weeks after treatment, 0-9 scale
Summary of the method: as §2

CASOB (Sicklepod) [8] = assay: Preemergence herbicidal evaluation; type: in vivo, Cassia obtusifolia; details: preemergence, rated 4-5 weeks after treatment, 0-9 scale
Summary of the method: as §2

[9] = tested on: CHEAL (Lambsquarters, Common); assay: Preemergence herbicidal evaluation; type: in vivo, Chenopodium album; details: preemergence, rated 4-5 weeks after treatment, 0-9 scale
Summary of the method: as §2

[10] = tested on: IPOHE (Morningglory, Ivyleaf); assay: Preemergence herbicidal evaluation; type: in vivo, Ipomoea hederacea; details: preemergence, rated 4-5 weeks after treatment, 0-9 scale
Summary of the method: as §2

[11] = tested on: GLXMAW (Soybean, Williams); assay: Preemergence herbicidal evaluation; type: in vivo, Glycine max, (L.) Merr. cv Williams; details: preemergence, rated 4-5 weeks after treatment, 0-9 scale
Summary of the method: as §2

ORYSAT (Rice, Tebonnet) = assay: Preemergence herbicidal evaluation; type: in vivo, Oryza sativa, (L.) Tebonnet; details: preemergence, rated 4-5 weeks after treatment, 0-9 scale
Summary of the method: as §2

MOOVA (Monochoria) = assay: Preemergence weed control under flooded paddy conditions; type: in vivo, Monochoria vaginalis; details: rated 3-4 weeks after treatment
Summary of the method: (§3)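 Silt loam, seeds in top 0.5 cm; flood held 1.5-3 cm; test cpd as acetone/water 50/50 into flood water, ~0.0313-0.500 kg/ha a.i.; greenhouse 3-4 wk; visual 0-9 score vs control.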

[12] = tested on: SAGPY (Arrowhead (Pygmaea)); assay: as above; type: in vivo, Sagittaria pygmaea; details: rated 3-4 weeks after treatment
Summary of the method: as §3

Compound `CN1C(=O)C(CC(=O)OCCF)SC1=Nc1cc(-n2c(=O)cc(C(F)(F)F)n(C)c2=O)c(F)cc1Cl` (stereo not drawn) [Compound 93, 2-Fluoroethyl 2-{{2-chloro-5-[3,6-dihydro-3-methyl-2,6-dioxo-4-(trifluoromethyl)-1(2H)-pyrimidinyl]-4-fluorophenyl}imino}-3-methyl-4-oxo-5-thiazolidineacetate] has an AMBEL herbicidal rating (AMBEL (Ragweed, Common) [1]; rate 0.0158 kg/ha) of 9.0, an AMBEL herbicidal rating (AMBEL (Ragweed, Common) [1]; rate 0.0315 kg/ha) of 9.0 and an AMBEL herbicidal rating (AMBEL (Ragweed, Common) [1]; rate 0.0630 kg/ha) of 9.0. The CASOB herbicidal rating (CASOB (Sicklepod) [2]; rate 0.0158 kg/ha) was 0.0, the CASOB herbicidal rating (CASOB (Sicklepod) [2]; rate 0.0315 kg/ha) was 1.0 and the CASOB herbicidal rating (CASOB (Sicklepod) [2]; rate 0.0630 kg/ha) was 2.0. It also gave a CHEAL herbicidal rating ([3]; rate 0.0158 kg/ha) of 4.0, a CHEAL herbicidal rating ([3]; rate 0.0315 kg/ha) of 4.0 and a CHEAL herbicidal rating ([3]; rate 0.0630 kg/ha) of 9.0. It also gave an IPOHE herbicidal rating ([4]; rate 0.0158 kg/ha) of 9.0, an IPOHE herbicidal rating ([4]; rate 0.0315 kg/ha) of 9.0 and an IPOHE herbicidal rating ([4]; rate 0.0630 kg/ha) of 9.0. It also gave an ECHCG herbicidal rating (ECHCG (Barnyardgrass); rate 0.0158 kg/ha) of 0.0, an ECHCG herbicidal rating (ECHCG (Barnyardgrass); rate 0.0315 kg/ha) of 2.0 and an ECHCG herbicidal rating (ECHCG (Barnyardgrass); rate 0.0630 kg/ha) of 7.0. The GLXMAW herbicidal rating ([5]; rate 0.0158 kg/ha) was 8.5, the GLXMAW herbicidal rating ([5]; rate 0.0315 kg/ha) was 9.0 and the GLXMAW herbicidal rating ([5]; rate 0.0630 kg/ha) was 9.0. It also gave a TRZAWR herbicidal rating ([6]; rate 0.0158 kg/ha) of 5.0, a TRZAWR herbicidal rating ([6]; rate 0.0315 kg/ha) of 6.0 and a TRZAWR herbicidal rating ([6]; rate 0.0630 kg/ha) of 7.5. The ABUTH rating (ABUTH (Velvetleaf); 0.0313 kg/ha) was 5.0, the ABUTH rating (ABUTH (Velvetleaf); 0.0625 kg/ha) was 9.0 and the ABUTH rating (ABUTH (Velvetleaf); 0.1250 kg/ha) was 9.0. The ABUTH rating (ABUTH (Velvetleaf); 0.2500 kg/ha) was 9.0, the AMBEL rating (AMBEL (Ragweed, Common) [7]; 0.0313 kg/ha) was 0.0 and the AMBEL rating (AMBEL (Ragweed, Common) [7]; 0.0625 kg/ha) was 0.0. It also gave an AMBEL rating (AMBEL (Ragweed, Common) [7]; 0.1250 kg/ha) of 9.0, an AMBEL rating (AMBEL (Ragweed, Common) [7]; 0.2500 kg/ha) of 9.0 and a CASOB rating (CASOB (Sicklepod) [8]; 0.0313 kg/ha) of 0.0. It also gave a CASOB rating (CASOB (Sicklepod) [8]; 0.0625 kg/ha) of 0.0, a CASOB rating (CASOB (Sicklepod) [8]; 0.1250 kg/ha) of 0.0 and a CASOB rating (CASOB (Sicklepod) [8]; 0.2500 kg/ha) of 9.0. For the same compound, the CHEAL rating ([9]; 0.0313 kg/ha) was 3.0, the CHEAL rating ([9]; 0.0625 kg/ha) was 9.0 and the CHEAL rating ([9]; 0.1250 kg/ha) was 9.0. The CHEAL rating ([9]; 0.2500 kg/ha) was 9.0, the IPOHE rating ([10]; 0.0313 kg/ha) was 0.0 and the IPOHE rating ([10]; 0.0625 kg/ha) was 2.0. For the same compound, the IPOHE rating ([10]; 0.1250 kg/ha) was 9.0, the IPOHE rating ([10]; 0.2500 kg/ha) was 9.0 and the GLXMAW rating ([11]; 0.0313 kg/ha) was 0.0. For the same compound, the GLXMAW rating ([11]; 0.0625 kg/ha) was 0.0, the GLXMAW rating ([11]; 0.1250 kg/ha) was 4.0 and the GLXMAW rating ([11]; 0.2500 kg/ha) was 8.0. It also gave an ORYSAT rating (ORYSAT (Rice, Tebonnet); 0.0313 kg/ha) of 0.0, an ORYSAT rating (ORYSAT (Rice, Tebonnet); 0.0625 kg/ha) of 0.0 and an ORYSAT rating (ORYSAT (Rice, Tebonnet); 0.1250 kg/ha) of 2.0. For the same compound, the ORYSAT rating (ORYSAT (Rice, Tebonnet); 0.2500 kg/ha) was 4.0, the “MOOVA herbicidal effect rating” value (MOOVA (Monochoria); 0.0313 kg/ha) was 9.0 and the “MOOVA herbicidal effect rating” value (MOOVA (Monochoria); 0.0625 kg/ha) was 9.0. For the same compound, the “MOOVA herbicidal effect rating” value (MOOVA (Monochoria); 0.1250 kg/ha) was 9.0, the “MOOVA herbicidal effect rating” value (MOOVA (Monochoria); 0.2500 kg/ha) was 9.0 and the “SAGPY herbicidal effect rating” value ([12]; 0.0313 kg/ha) was 0.0. For the same compound, the “SAGPY herbicidal effect rating” value ([12]; 0.0625 kg/ha) was 0.0, the “SAGPY herbicidal effect rating” value ([12]; 0.1250 kg/ha) was 3.0 and the “SAGPY herbicidal effect rating” value ([12]; 0.2500 kg/ha) was 9.0.
